pKd: −log10 of the molar value.
Biological target: T1, full-length C1r (Homo sapiens, UniProt P00736)
T1 construct: purchased Complement Technology (CompTech)
T1 sequence (P00736 18-463 limits assumed): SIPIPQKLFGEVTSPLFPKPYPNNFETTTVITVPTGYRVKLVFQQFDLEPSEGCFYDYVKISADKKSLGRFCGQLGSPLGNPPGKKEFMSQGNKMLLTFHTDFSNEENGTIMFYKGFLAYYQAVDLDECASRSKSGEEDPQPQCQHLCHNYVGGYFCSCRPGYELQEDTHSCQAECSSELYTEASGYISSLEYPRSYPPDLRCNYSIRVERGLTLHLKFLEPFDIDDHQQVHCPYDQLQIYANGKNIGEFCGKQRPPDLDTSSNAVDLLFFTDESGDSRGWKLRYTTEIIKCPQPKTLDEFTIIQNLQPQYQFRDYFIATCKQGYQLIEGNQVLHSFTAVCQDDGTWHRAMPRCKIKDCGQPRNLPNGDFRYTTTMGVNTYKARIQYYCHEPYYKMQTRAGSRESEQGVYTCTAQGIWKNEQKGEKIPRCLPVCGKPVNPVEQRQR
T1 sequence (P00736 464-705 limits assumed): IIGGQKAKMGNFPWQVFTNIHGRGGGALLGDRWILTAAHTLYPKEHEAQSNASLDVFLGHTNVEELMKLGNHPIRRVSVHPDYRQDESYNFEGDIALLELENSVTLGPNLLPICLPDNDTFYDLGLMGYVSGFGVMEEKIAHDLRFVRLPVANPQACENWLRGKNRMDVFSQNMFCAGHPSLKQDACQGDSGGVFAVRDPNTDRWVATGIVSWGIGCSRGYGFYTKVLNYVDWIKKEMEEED
Test: SPR dose-dependent binding, steady-state affinity
Conditions: for pKd: 1:1 steady-state binding model, mean ± S.D. from three independent injection series, 25 °C; for Ligand efficiency (LE): LE = ΔG/number of non-hydrogen atoms, ΔG = -RT x ln KD,C1r, using KD values of Fig. 3
Protocol: All SPR experiments were carried out using a Biacore T200 (GE Healthcare, Chicago, IL, USA) at 25 °C. For all experiments, a running buffer (HBS-T) of 20 mM HEPES (pH 7.3), 140 mM NaCl, 0.005% (v/v) Tween-20, 5% DMSO (v/v) was used. For each experiment, DMSO calibration curves ranging from 4% to 5.5% DMSO (v/v) were collected at the beginning, end, and every 50 cycles throughout the duration of the experiment. All experiments were performed using HC1500M sensor chips (Xantec, Duesseldorf, Germany). In total, 10 sensor chips and 16 ligand immobilized surfaces were created over the course of this study (detailed in Table S2). In all cases, C1r proteins were immobilized onto chip surfaces using amine-coupling chemistry with 1-ethyl-3-(3-dimethylaminopropyl)-carbodiimide) (EDC), N-hydroxysuccinimide (NHS), followed by ethanolamine. Briefly, 100 mM of EDC and NHS were mixed and injected to activate the chip surface followed by the C1r protein ligand captured at a defined resonance unit (RU) level, followed by reaction quenching with 100 mM ethanolamine pH 8.5. Flow cell 1 was always used as a reference cell (no ligand), unless otherwise noted. All sensorgrams were reference and blank subtracted and analyzed using T200 Evaluation Software (GE Healthcare, Chicago, IL, USA).
To further evaluate hit compounds from the initial SPR screen, dose-dependent SPR binding assays were carried out. Three replicate flow cells were used containing both low and high immobilization densities of C1r (see Table S2). Hit compounds were tested for dose-dependent binding to full-length C1r using a compound concentration range of 7.8–500 µM. T200 evaluation software was used to calculate steady-state affinities for each compound by fitting sensorgrams from each variable concentration injection dataset using a 1:1 Langmuir model of interaction constrained by a theoretical experimental binding response based on the mol. wt. of each compound and derived as stated above. KD values are reported as the mean ± the standard deviation from at least three independent measurements.

Row | pKd | Ligand efficiency (LE) | SMILES
1 | 4.96 | – | N=C(N)c1ccc2cc(OC(=O)c3ccc(N=C(N)N)cc3)ccc2c1 [Futhan, reference compound]
2 | 3.32 | 0.28 | CN(C)c1cc(N2CCCC(N)C2)ncn1 (centres unmarked) [CMP-1611]
3 | 3.17 | 0.22 | COCc1nc(-c2ccc(OC3CNC3)cc2)no1 [CMP-1696]

— article PMC7504721, “Targeting the Initiator Protease of the Classical Pathway of Complement Using Fragment-Based Drug Discovery” (Molecules, 2020)
